Test results from patent US12440467B2, “Treatment and prevention of infections using vegetable oil-derived polyols” (priority 2021, dated 2025).

Target: T1, CD4-gp120 complex (Human immunodeficiency virus type 1 group M subtype B, UniProt P04578)
T1 construct: recombinant gp120 (5 μg, Sigma-Aldrich); purchased Sigma-Aldrich (gp120); R&D Systems (CD4)
Assay: Immunoprecipitation / Western blot of CD4-gp120 complex formation
Format: binding, HIV
Settings: increasing concentration, Polyol:CD4-gp120 1:1000, 1:100, 1:10; polyol alone
Method: Immunoprecipitation studies conducted in the presence or absence of the linseed oil-derived polyol were performed to evaluate the impact of the polyol on the formation of the CD4-gp120 complex. A commercially available immunoprecipitation kit consisting of protein G-coated agarose beads (Invitrogen) was used, and immunoprecipitations were conducted according to the manufacturer's protocol. Briefly, the gp120 antibody (5 μg, Sigma-Aldrich) was bound to the protein G-coated agarose beads (50 μl) by placing the antibody and protein G agarose beads in 1.5 ml Eppendorf centrifuge tubes and incubated at room temperature for 10 minutes with rotation. The tubes were placed on the magnet (Life Technologies) and the supernatant was removed. […] The samples were heated for 5 minutes at 95° C., then placed on the magnet, the supernatants were collected and analyzed via western blot. […]
A standard western blot technique was used to evaluate the impact of the polyol on CD4-gp120 complex formation. […] Protein bands on the membrane were detected by chemiluminescence (Femto, ThermoFisher) and imaged on X-ray film (ThermoFisher). The blotted protein was quantified using the Image J software to measure the density, and the values were normalized to an untreated sample.
The inhibitory effect of the linseed oil-derived polyol on the formation of CD4 and […] complex was evaluated with immunoprecipitation (IP). […]

For CCC(O)C(O)CC(O)C(O)CC=CCCCCCCCC(=O)OC (stereo not shown) [linseed oil-derived polyol], the “effect on CD4-gp120 complex formation (gp120 bands)” value was “reduced the CD4-gp120 complex formation”.
